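Assay format: 96-well plates, 48-hour exposure. GI50: concentration for 50% inhibition of growth. TGI denotes the concentration required for complete inhibition of growth.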
What was measured:
Experiment in all cases: DTP human tumour cell line panel, 48 h
COLO 205 colon = tested on: COLO 205 colon
DU-145 prostate = tested on: DU-145 prostate
HCT-15 colon = tested on: HCT-15 colon
HOP-62 NSCLC = tested on: HOP-62 NSCLC
IGROV1 ovarian = tested on: IGROV1 ovarian
MDA-MB-231 breast = tested on: MDA-MB-231 breast
NCI-H226 lung = tested on: NCI-H226 lung
NCI-H522 lung = tested on: NCI-H522 lung
SK-MEL-5 melanoma = tested on: SK-MEL-5 melanoma
SR leukemia = tested on: SR leukemia

| SMILES | GI50 (COLO 205 colon) [µM] | TGI (COLO 205 colon) [µM] | GI50 (DU-145 prostate) [µM] | TGI (DU-145 prostate) [µM] | GI50 (HCT-15 colon) [µM] | TGI (HCT-15 colon) [µM] | GI50 (HOP-62 NSCLC) [µM] | TGI (HOP-62 NSCLC) [µM] | GI50 (IGROV1 ovarian) [µM] | TGI (IGROV1 ovarian) [µM] | GI50 (MDA-MB-231 breast) [µM] | TGI (MDA-MB-231 breast) [µM] | GI50 (NCI-H226 lung) [µM] | TGI (NCI-H226 lung) [µM] | GI50 (NCI-H522 lung) [µM] | TGI (NCI-H522 lung) [µM] | GI50 (SK-MEL-5 melanoma) [µM] | TGI (SK-MEL-5 melanoma) [µM] | GI50 (SR leukemia) [µM] | TGI (SR leukemia) [µM] |
| --- | --- | --- | --- | --- | --- | --- | --- | --- | --- | --- | --- | --- | --- | --- | --- | --- | --- | --- | --- | --- |
| CO[C@H](C(=O)O)[C@@H]1Cc2cc3cc(OC4CC(OC5CC(O)C(O)C(C)O5)C(O)C(C)O4)c(C)c(O)c3c(O)c2C(=O)[C@H]1OC1CC(OC2CC(OC3CC(C)(O)C(O)C(C)O3)C(O)C(C)O2)C(O)C(C)O1 (stereo not given in full) | 0.285 | 2.57 | 0.364 | > 32.5 | 1.66 | > 32.5 | 0.211 | > 32.5 | 0.231 | > 32.5 | 0.553 | > 32.5 | 0.126 | 0.892 | 0.134 | > 32.5 | 0.159 | 0.868 | 0.133 | 8.37 |
| CC[C@H](NC(=O)[C@H](CS(=O)(=O)CC1CC1)N[C@@H](c1ccc(F)cc1)C(F)(F)F)C(=O)C(=O)NC1CC1 | > 100 | > 100 | > 100 | > 100 | > 100 | > 100 | > 100 | > 100 | > 100 | > 100 | 93.1 | > 100 | > 100 | > 100 | > 100 | > 100 | > 100 | > 100 | 98.4 | > 100 |
| CCCCCCNC(=O)Oc1ccc(/C(=C(\C)c2ccccc2)c2ccc(OCCN(CC)CC)cc2)cc1 | 1.17 | 2.49 | 7.45 | 14.6 | 1.31 | 3.68 | 6.51 | 13.4 | 3.11 | 9.82 | 5.08 | 11.4 | 6.67 | 14.3 | 3.48 | 10.6 | 3.01 | 9.26 | 1.09 | 3.18 |
| NS(=O)(=O)c1ccc(NC(=O)Nc2ccccc2F)cc1 | – | > 100 | – | > 100 | – | > 100 | – | > 100 | – | > 100 | – | > 100 | – | > 100 | – | > 100 | – | > 100 | – | > 100 |
| CCOC(=O)c1ccccc1-c1c2ccc(=[N+](C)C)cc-2oc2cc(N(C)C)ccc12 | 0.143 | 0.43 | 0.174 | 24.1 | 2.96 | > 37.2 | 0.352 | 10.3 | 0.332 | 16.1 | 0.301 | 10.7 | 0.758 | 10.2 | 0.306 | 16.4 | 0.205 | 0.632 | 0.298 | 27.4 |
| COC(=O)[C@]12CC[C@@H](C)[C@H](C)[C@@H]1C1=CC[C@@H]3[C@@]4(C)CC(=O)[C@H](OC(=O)c5ccco5)[C@@]5(C)COC(=C45)C[C@@]3(C)[C@]1(C)CC2 | 0.342 | 2.93 | 9.04 | > 100 | 0.54 | > 100 | 17.6 | > 100 | 3.71 | > 100 | 5.11 | > 100 | 83.1 | > 100 | 3.1 | > 100 | 0.414 | 2.54 | 0.371 | > 100 |
